Experimental data published in paper PMC5978685, “Design, Synthesis, and Evaluation of Novel Immunomodulatory Small Molecules Targeting the CD40–CD154 Costimulatory Protein-Protein Interaction” (Molecules : A Journal of Synthetic Chemistry and Natural …, 2018).
Like-named read-outs stand apart in the source and are kept apart here.

How the values were obtained:
BAFFR–BAFF = target: T1, BAFFR–BAFF (Homo sapiens, UniProt Q9Y275); test: cell-free ELISA-type binding inhibition assay, BAFFR–BAFF
T1 construct: purchased Enzo Life Sciences
T1 sequence (Q9Y275 134-285 limits assumed): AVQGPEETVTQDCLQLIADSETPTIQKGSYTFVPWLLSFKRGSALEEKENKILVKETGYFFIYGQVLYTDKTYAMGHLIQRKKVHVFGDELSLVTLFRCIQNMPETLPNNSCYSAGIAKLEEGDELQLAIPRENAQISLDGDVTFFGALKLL
Description: (§1) In parallel with the CD40–CD154 assay, the ability of these compounds to inhibit other TNFSFR–TNFSF PPIs, including OX40–OX40L, BAFFR–BAFF, and TNF-R1–TNF-α, was also assessed (Figure 3B–D).
(§2) Binding inhibition assays were performed in a 96-well cell-free format as described before. Briefly, microtiter plates (Nunc F Maxisorp, 96-well; Thermo Fisher Scientific, Waltham, MA, USA) were coated overnight at 4 °C with 100 μL/well of Fc-conjugated receptors diluted in PBS pH 7.2. This was followed by blocking with 200 μL/well of blocking solution (PBS pH 7.2, 0.05% Tween-20, 1% BSA) for 1 h at RT. Then, plates were washed twice using washing solution (PBS pH 7.4, 0.05% Tween-20) and tapped dry before the addition of the appropriate FLAG tagged ligands along with different concentrations of tested dyes diluted in binding buffer (100 mM HEPES, 0.005% BSA pH 7.2) to give a total volume of 100 μL/well. After 1 h incubation, three washes were conducted, and anti-FLAG HRP conjugate was used to detect the bound FLAG-tagged ligand. Plates were washed four times before the addition of 120 μL/well of HRP substrate TMB (3,3′,5,5′-tetramethylbenzidine) and kept in the dark for up to 15 min. The reaction was stopped using 30 μL of 1M H2SO4, and the absorbance value was read at 450 nm. The concentrations of receptors used were 0.3 μg/mL for CD40, TNF-R1, and BAFFR; 0.6 μg/mL for OX40. The concentrations of the ligands were fixed at 0.02 μg/mL for CD154 and TNF-α, 0.06 μg/mL for OX40L, and 0.03 μg/mL for BAFF. These values were selected following preliminary testing to optimize response (i.e., to produce a high-enough signal at conditions close to half-maximal response, EC50). […] To verify that inhibition is not due to colloidal aggregation, CD40 binding inhibition was also measured in the presence of the non-ionic detergent Triton-X 100 (0.01%), as recommended for the detection of such effects.
(§3) All binding inhibition and cell assays were tested in duplicate or triplicate per plates, and assays were performed as at least three independent experiments. As before, binding and cytotoxicity data were converted to percent inhibition and fitted with standard log inhibitor vs. normalized response models using nonlinear regression in GraphPad Prism (GraphPad, La Jolla, CA, USA) to establish half-maximal (median) inhibitory concentration (IC50) or median lethal concentration (LC50) values. Cell assay data were fitted with a similar model that also allowed for a variable slope using the log inhibitor vs. normalized response (variable slope) model from Prism with a Hill slope (n) shared across all compounds. Cell assays and draining lymph node data were analyzed by one-way repeated-measures analysis of variance (ANOVA) followed by Dunnett’s multiple comparison test as a post hoc test for individual differences using GraphPad Prism and a significance level of p < 0.05 for all comparisons.
(§4) Data are (counterclockwise) for human CD40–CD154 (CD40L) (A); OX40–OX40L (B); BAFFR–BAFF (C); and TNF-R1–TNFα (D) and were fitted with standard binding curves. Data are average ± SD (normalized to percent binding) for n = 3 independent experiments with duplicates for each condition.

[1] = tested on: CD154-induced NF-κB activation in CD40 sensor cells; test: CD40 sensor cell assay (HEK Blue CD40, SEAP reporter); assay type: cell-based, human; settings: for IC50: Homo sapiens, CD154 100 ng/mL, 24 h
Text: As further confirmation of the inhibitory activity of our compounds, a cell-based assay was used with sensor cells (HEK Blue CD40) containing a secreted embryonic alkaline phosphatase (SEAP) reporter gene under the control of a promoter fused to a NF-κB binding site and transfected with CD40. […] For all tested compounds, the corresponding IC50 values are higher than those determined in the cell-free binding inhibition assay (Table 1) representing a loss of activity which is likely due to non-specific binding on account of the presence of proteins and cells in the assay, as well as hydrophobicity-related problems. Cytotoxicities were also evaluated in these same cells and at the same concentrations using a standard MTS assay to ensure that effects are present at non-toxic concentration levels.
CD40 expressing NF-κB sensor cells (HEK Blue, InvivoGen, San Diego, CA, USA) were used to assess the ability of the present compounds to block CD154-induced activation as described before. Briefly, cells were maintained in DMEM at 80% confluence for each experiment. Cells were trypsinized and re-suspended in the same medium without FBS and seeded on 96-well microtiter plates at a density of 50,000 cells/well in the absence and presence of various concentrations of compounds diluted in the same media. For ligand mediated stimulation, a concentration of recombinant human CD154 (100 ng/mL) found to induce an optimal response was maintained in the wells for this purpose. After 24 h of incubation at 37 °C, 40 μL supernatant of each well were taken and added to another 96-well microtiter plate containing 160 μL/well of QUANTI-Blue (InvivoGen). The level of SEAP was determined after 1 h of incubation at 37 °C by reading at 650 nm using a spectrophotometer. A monoclonal anti-human CD154 antibody (clone 40804, R&D Systems, Minneapolis, MN, USA) was used as a positive control at 240 nM concentration.
as §3
Figure 5 Inhibition of CD154-induced NF-κB activation in CD40 sensor cells by compounds 6, 14, 15, and 18 in a concentration-dependent manner. Tartrazine (TZ) and an anti-CD154 antibody (mAb; single dose, 240 nM) were included as negative and positive controls, respectively. Data are average ± SD (normalized to CD154-activated cells alone) for n = 2 independent experiments with duplicates for each condition.

TNF-R1–TNFα = target: T2, TNF-R1–TNFα (Homo sapiens, UniProt P01375); test: cell-free ELISA-type binding inhibition assay, TNF-R1–TNFα
T2 construct: purchased Enzo Life Sciences
T2 sequence (P01375 85-233 limits assumed): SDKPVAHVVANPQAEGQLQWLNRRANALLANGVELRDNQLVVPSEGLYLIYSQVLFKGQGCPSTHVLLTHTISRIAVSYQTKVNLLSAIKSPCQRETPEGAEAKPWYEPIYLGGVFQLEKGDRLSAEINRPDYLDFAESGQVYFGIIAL
Description: as §1, §2, §3, §4

CD40–CD154 (CD40L) = target: T3, CD40–CD154 (CD40L) (Homo sapiens, UniProt P29965); design: method as in PMID 29024591; settings: 95% CI of 235–401; read-out: CD40–CD154 IC50 (previous assessment); cited from earlier work
T3 construct: purchased Enzo Life Sciences
T3 sequence (P29965 116-261 limits assumed): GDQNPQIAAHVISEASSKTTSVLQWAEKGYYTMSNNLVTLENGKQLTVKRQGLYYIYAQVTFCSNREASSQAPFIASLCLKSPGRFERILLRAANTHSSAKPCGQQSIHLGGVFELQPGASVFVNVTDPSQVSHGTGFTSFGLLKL

[2] = cell-free TNF-R1–TNFα binding inhibition, read-out: TNF IC50

SMILES	IC50 (BAFFR–BAFF) [µM]	inhibition of CD154-induced NF-κB activation (qualitative) [1]	IC50 [1] [µM]	IC50 (TNF-R1–TNFα; [2]) [µM]	IC50 (TNF-R1–TNFα; cell-free binding inhibition, read-out: TNF-R1–TNF IC50) [µM]	IC50 (CD40–CD154 (CD40L)) [µM]
COC(=O)c1ccc(-c2ccc(C(=O)Nc3ccc(-c4ccc(C(=O)Nc5cccc6cccc(S(=O)(=O)O)c56)cc4)cc3)cc2)cc1 [Compound 15, 8-(4′-(4′-(Methoxycarbonyl)-[1,1′-biphenyl]-4-carboxamido)-[1,1′-biphenyl]-4-carboxamido)naphthalene-1-sulfonic acid]	1.52	concentration-dependent inhibition	6	26.5	26.5	
O=C(Nc1ccc(-c2ccc(C(=O)Nc3cccc4cccc(S(=O)(=O)O)c34)cc2)nc1)c1ccc([N+](=O)[O-])cc1 [Compound 18, 8-(4-(5-(4-Nitrobenzamido)pyridin-2-yl)benzamido)naphthalene-1-sulfonic acid]	8.07	concentration-dependent inhibition	8.7	46.9		
O=C(Nc1ccc(-c2ccc(C(=O)Nc3cccc4cccc(S(=O)(=O)O)c34)cc2)cc1)c1ccc([N+](=O)[O-])cc1 [Compound 6, 8-(4′-(4-Nitrobenzamido)biphenyl-4-ylcarboxamido)naphthalene-1-sulfonic acid]	0.328	concentration-dependent inhibition	19.9	> 1000		0.307
